Experimental data as given in US20230257385A1, “SALT AND SOLID FORMS OF TABERNANTHALOG” (priority 2021, published 2023).

How the values were obtained:
[1] = DVS analyses of sorbate salt Form A / Form C (Example 10); type: physicochemical; conditions: 0% to 90% to 0% RH
Description: DVS analyses of Form A (Performed on batch reference: Experiment 11-Sample -A1) To determine whether Form A underwent form change at high % RH, DVS residues of Form A, from 0 to 80% RH and 0 to 90% RH, were examined. The specimens were equilibrated to constant mass, at 80% and 90% RH set-points, removed, placed in a capped vial, and analysed by XRPD and DSC. Based on the SC-XRD at 100 K, no regular voids in the crystal structure were large enough to accommodate non-crystal-bonded, molecular water with minimum probe radius of 1.4 Å.
The moisture sorption properties of the feed API were analysed by DVS Intrinsic instrument (Surface Measurement System). Approximately 20 to 50 mg of API was weighed onto an aluminium pan and loaded into the instrument equilibrated at 25° C. The sample was equilibrated under a dry atmosphere (0% relative humidity) for 60 minutes, before increasing the humidity from 0% to 30% at 5% step increment and from 30% to 90% at 10% step increment. A desorption cycle was also applied from 90% to 30% (10% step decrement) and from 30% to 0% (5% step decrement). A rate of change in mass per time unit (dm/dt) of 0.002%/min was set as the equilibrium parameter. Kinetic and isotherm graphs were calculated.
5. DVS Analyses: 0% to 90% DVS Mass Per Unit Time Equilibrated at Dm/Dt (0.0002%/Min)

[2] = Heat-up/cool down (HUCD) crystallization of the monofumarate salt (Experiment Reference 11); type: physicochemical; conditions: for XRPD (oven dried): form of product from HUCD crystallization of tabernanthalog fumarate Sample Reference 1 (Pattern #1), solvents per sample as in E1; for Observations (t = 0 @ T = 20° C.): input tabernanthalog fumarate Sample Reference 1 (Pattern #1), Solvent A/B: 11-A acetone/water, 11-B acetonitrile/water, 11-C butanol/water, 11-D tBME/methanol, 11-E DCM/methanol, 11-F ethanol/water, 11-G methyl acetate/water/methanol, 11-H 2-propanol/water, 11-1 methanol, 11-J MEK/water, 11-K 2-MeTHF/methanol, 11-L THF/water, 11-M toluene/methanol, 11-N water, 11-O dioxane/water, 11-P CPME/methan
Description: Separate portions of the tabernanthalog monofumarate salt (Pattern #1, Sample Reference 1, ca 75 mg, 1.0 wt.) were charged to separate vessels. The appropriate solvents (750 μl, 10.0 vol, refer to Table 106) were charged to the relevant vessels and subsequent charges of the appropriate co-solvent were made to accomplish dissolution at reflux. The solutions were cooled to 18 to 23° C. and allowed to stand undisturbed, until crystallization was judged complete. After this time the products were isolated by centrifugation, washed with recycled maturation solvent, dried under reduced pressure at 40° C. and analyzed by XRPD for evidence of alternative crystalline forms.

[3] = type: physicochemical; conditions: salt screen, Experiment 2
Description: Tabernanthalog (native) (50 mg, 1 wt) was charged to a solution of the relevant counter ion (1.0 mol equivalence of counter ion) in ethanol (5.0 vol, 250 μl). The mixtures were warmed to 85° C. and small aliquots of water were added until dissolution occurred (Table 212 for additional charges of solvent). The solutions were cooled and allowed to stand undisturbed under sub-ambient conditions overnight (Table 211). […] Products were isolated via centrifugation. The corresponding pellets were sub-sampled and analyzed wet by XRPD; after which, they were dried at 40° C. under reduced pressure over 20 h and reanalyzed by XRPD. […] Once the crystallization experiments were completed, salt formation was confirmed by ^1H NMR, XRPD, DSC and TGA.

[4] = Solubility determinations in SIF buffers FaSSIF, FeSSIF, FaSSGF (Example 8, Experiment 5)
Description: The temperature was maintained at 37° C. for 24 h. […] The suspensions were sampled at the relevant time points and centrifuged. The centrifuged pellets, obtained at the time points were analysed by XRPD as a wet pellet and dried, for evidence of form change.
The temperature was maintained at 37° C. for 24 h.
The suspension was sampled at the relevant time points and centrifuged. […] The centrifuged pellets, obtained at the time points were analyzed by XRPD as a wet pellet and dried, for evidence of form change.

[5] = input batch 3-B1, before SIF buffer

## C/C=C/C=C/C(=O)O.COc1ccc2c3c([nH]c2c1)CCN(C)CC3.O [Form C (Pattern #2)]
[1]
  form change during DVS: reverted to Form A on the desorption cycle

## COc1ccc2c3c([nH]c2c1)CCN(C)CC3.O=C(O)/C=C/C(=O)O [Sample 11-F]
[2]
  XRPD (oven dried): Pattern #6a
  Observations (t = 0 @ T = 20° C.): suspension

## COc1ccc2c3c([nH]c2c1)CCN(C)CC3.O=C(O)/C=C/C(=O)O [Sample 11-G]
[2]
  XRPD (oven dried): Pattern #1
  Observations (t = 0 @ T = 20° C.): suspension

## COc1ccc2c3c([nH]c2c1)CCN(C)CC3.O=C(O)/C=C/C(=O)O [Sample 11-H]
[2]
  XRPD (oven dried): Pattern #6a
  Observations (t = 0 @ T = 20° C.): cloudy

## COc1ccc2c3c([nH]c2c1)CCN(C)CC3.O=C(O)/C=C/C(=O)O [Sample 11-J]
[2]
  XRPD (oven dried): Pattern #6a
  Observations (t = 0 @ T = 20° C.): suspension

## COc1ccc2c3c([nH]c2c1)CCN(C)CC3.O=C(O)/C=C/C(=O)O [Sample 11-K]
[2]
  XRPD (oven dried): Pattern #5
  Observations (t = 0 @ T = 20° C.): suspension

## COc1ccc2c3c([nH]c2c1)CCN(C)CC3.O=C(O)/C=C/C(=O)O [Sample 11-L]
[2]
  XRPD (oven dried): Pattern #6a
  Observations (t = 0 @ T = 20° C.): solution

## COc1ccc2c3c([nH]c2c1)CCN(C)CC3.O=C(O)/C=C/C(=O)O [Sample 11-M]
[2]
  XRPD (oven dried): Pattern #6b
  Observations (t = 0 @ T = 20° C.): suspension

## COc1ccc2c3c([nH]c2c1)CCN(C)CC3.O=C(O)/C=C/C(=O)O [Sample 11-N]
[2]
  XRPD (oven dried): Pattern #6a
  Observations (t = 0 @ T = 20° C.): suspension

## COc1ccc2c3c([nH]c2c1)CCN(C)CC3.O=C(O)/C=C/C(=O)O [Sample 11-O]
[2]
  XRPD (oven dried): Pattern #6a
  Observations (t = 0 @ T = 20° C.): suspension

## COc1ccc2c3c([nH]c2c1)CCN(C)CC3.O=C(O)/C=C/C(=O)O [Sample 11-P]
[2]
  XRPD (oven dried): Pattern #5
  Observations (t = 0 @ T = 20° C.): suspension

## COc1ccc2c3c([nH]c2c1)CCN(C)CC3.O=C(O)/C=C/C(=O)O [Sample 11-Q]
[2]
  XRPD (oven dried): Pattern #5
  Observations (t = 0 @ T = 20° C.): solution

## COc1ccc2c3c([nH]c2c1)CCN(C)CC3.O=C(O)CCCCC(=O)O [Tabernanthalog · Adipate]
[3]
  Discrete melt (DSC)?: ✓
  Flat baseline (DSC)?: ✓
  Unique XRPD?: ✓

## COc1ccc2c3c([nH]c2c1)CCN(C)CC3.O=C(O)c1ccccc1 [Tabernanthalog · Benzoate]
[4]; [5]
  Trended HPLC data, Tabernanthalog (RRT 1.00): 99.23 % area
  Trended HPLC data, peak at RRT 0.86: 0.02 % area
  Trended HPLC data, peak at RRT 0.89: 0.04 % area
  Trended HPLC data, peak at RRT 0.93: 0.61 % area
  Trended HPLC data, peak at RRT 1.09: 0.08 % area
  Trended HPLC data, peak at RRT 1.11: 0.02 % area
[4]; t = 1 h in FaSSGF
  Trended HPLC data, Tabernanthalog (RRT 1.00): 99.33 % area
  Trended HPLC data, peak at RRT 0.93: 0.55 % area
  Trended HPLC data, peak at RRT 1.09: 0.07 % area
  Trended HPLC data, peak at RRT 1.10: 0.02 % area
  Trended HPLC data, peak at RRT 1.11: 0.03 % area
[4]; t = 1 h in FaSSIF
  Trended HPLC data, Tabernanthalog (RRT 1.00): 98.67 % area
  Trended HPLC data, peak at RRT 0.93: 0.92 % area
  Trended HPLC data, peak at RRT 1.08: 0.13 % area
  Trended HPLC data, peak at RRT 1.11: 0.28 % area
[4]; t = 1 h in FeSSIF
  Trended HPLC data, Tabernanthalog (RRT 1.00): 99.05 % area
  Trended HPLC data, peak at RRT 0.93: 0.84 % area
  Trended HPLC data, peak at RRT 1.08: 0.11 % area
[4]; t = 3 h in FaSSGF
  Trended HPLC data, Tabernanthalog (RRT 1.00): 99.34 % area
  Trended HPLC data, peak at RRT 0.93: 0.58 % area
  Trended HPLC data, peak at RRT 1.09: 0.07 % area
[4]; t = 3 h in FaSSIF
  Trended HPLC data, Tabernanthalog (RRT 1.00): 98.77 % area
  Trended HPLC data, peak at RRT 0.93: 1.04 % area
  Trended HPLC data, peak at RRT 1.08: 0.20 % area
[4]; t = 3 h in FeSSIF
  Trended HPLC data, Tabernanthalog (RRT 1.00): 99.03 % area
  Trended HPLC data, peak at RRT 0.93: 0.81 % area
  Trended HPLC data, peak at RRT 1.08: 0.10 % area
  Trended HPLC data, peak at RRT 1.11: 0.06 % area
[4]; t = 6 h in FaSSGF
  Trended HPLC data, Tabernanthalog (RRT 1.00): 99.33 % area
  Trended HPLC data, peak at RRT 0.93: 0.59 % area
  Trended HPLC data, peak at RRT 1.09: 0.08 % area
[4]; t = 6 h in FaSSIF
  Trended HPLC data, Tabernanthalog (RRT 1.00): 98.58 % area
  Trended HPLC data, peak at RRT 0.93: 1.26 % area
  Trended HPLC data, peak at RRT 1.08: 0.16 % area
[4]; t = 6 h in FeSSIF
  Trended HPLC data, Tabernanthalog (RRT 1.00): 98.69 % area
  Trended HPLC data, peak at RRT 0.93: 1.00 % area
  Trended HPLC data, peak at RRT 1.08: 0.15 % area
  Trended HPLC data, peak at RRT 1.10: 0.07 % area
  Trended HPLC data, peak at RRT 1.11: 0.09 % area
[4]; t = 24 h in FaSSGF
  Trended HPLC data, Tabernanthalog (RRT 1.00): 99.29 % area
  Trended HPLC data, peak at RRT 0.93: 0.63 % area
  Trended HPLC data, peak at RRT 1.09: 0.08 % area
[4]; t = 24 h in FaSSIF
  Trended HPLC data, Tabernanthalog (RRT 1.00): 98.01 % area
  Trended HPLC data, peak at RRT 0.93: 1.51 % area
  Trended HPLC data, peak at RRT 1.08: 0.24 % area
  Trended HPLC data, peak at RRT 1.10: 0.11 % area
  Trended HPLC data, peak at RRT 1.11: 0.13 % area
[4]; t = 24 h in FeSSIF
  Trended HPLC data, Tabernanthalog (RRT 1.00): 98.17 % area
  Trended HPLC data, peak at RRT 0.89: 0.15 % area
  Trended HPLC data, peak at RRT 0.93: 1.36 % area
  Trended HPLC data, peak at RRT 1.08: 0.19 % area
  Trended HPLC data, peak at RRT 1.10: 0.13 % area
[3]
  Discrete melt (DSC)?: ✓
  Flat baseline (DSC)?: ✓
  Flat baseline pre-melt (TGA)?: ✓
  Unique XRPD?: ✓

## COc1ccc2c3c([nH]c2c1)CCN(C)CC3.O=C(O)CC(O)(CC(=O)O)C(=O)O [Tabernanthalog · Citrate]
[3]
  Unique XRPD?: v. Disordered

## COc1ccc2c3c([nH]c2c1)CCN(C)CC3.O=S(=O)(O)CCS(=O)(=O)O [Tabernanthalog · Edisylate]
[3]
  Unique XRPD?: Disordered

## COc1ccc2c3c([nH]c2c1)CCN(C)CC3.O=C(O)[C@@H](O)[C@H](O)[C@H](O)[C@@H](O)C(=O)O [Tabernanthalog · Galactarate]
[3]
  Flat baseline pre-melt (TGA)?: ✓
  Unique XRPD?: v. Disordered

## COc1ccc2c3c([nH]c2c1)CCN(C)CC3.O=C[C@H](O)[C@@H](O)[C@H](O)[C@H](O)C(=O)O [Tabernanthalog · Glucuronate]
[3]
  Discrete melt (DSC)?: ✓
  Flat baseline (DSC)?: ✓
  Flat baseline pre-melt (TGA)?: ✓
  Unique XRPD?: ✓

## COc1ccc2c3c([nH]c2c1)CCN(C)CC3.O=C(O)C[C@H](O)C(=O)O [Tabernanthalog · Malate]
[3]
  Discrete melt (DSC)?: ✓
  Flat baseline (DSC)?: ✓
  Flat baseline pre-melt (TGA)?: ✓
  Unique XRPD?: ✓

## COc1ccc2c3c([nH]c2c1)CCN(C)CC3.O=C(O)C=CC(=O)O [Tabernanthalog · Maleate]
[3]
  Unique XRPD?: Disordered

## COc1ccc2c3c([nH]c2c1)CCN(C)CC3.O=P(O)(O)O [Tabernanthalog · Phosphate]
[3]
  Discrete melt (DSC)?: ✓
  Flat baseline (DSC)?: ✓
  Unique XRPD?: Disordered

## COc1ccc2c3c([nH]c2c1)CCN(C)CC3 [Tabernanthalog · Sorbate]
[3]
  Discrete melt (DSC)?: ✓
  Flat baseline (DSC)?: ✓
  Flat baseline pre-melt (TGA)?: ✓
  Unique XRPD?: ✓

## COc1ccc2c3c([nH]c2c1)CCN(C)CC3.O=S(=O)(O)O [Tabernanthalog · Sulfate]
[3]
  Unique XRPD?: Amorphous

## COc1ccc2c3c([nH]c2c1)CCN(C)CC3.Cc1ccc(S(=O)(=O)O)cc1 [Tabernanthalog · Tosylate]
[3]
  Discrete melt (DSC)?: ✓
  Flat baseline (DSC)?: ✓
  Flat baseline pre-melt (TGA)?: ✓
  Unique XRPD?: ✓
